Measured values published in PMC9136617 (Acta Pharmaceutica Sinica. B, 2022).

Key:
PPARα = biological target: T1, PPARα (Homo sapiens, UniProt Q07869); test: SPR; assay type: binding
T1 sequence (Q07869 1-468): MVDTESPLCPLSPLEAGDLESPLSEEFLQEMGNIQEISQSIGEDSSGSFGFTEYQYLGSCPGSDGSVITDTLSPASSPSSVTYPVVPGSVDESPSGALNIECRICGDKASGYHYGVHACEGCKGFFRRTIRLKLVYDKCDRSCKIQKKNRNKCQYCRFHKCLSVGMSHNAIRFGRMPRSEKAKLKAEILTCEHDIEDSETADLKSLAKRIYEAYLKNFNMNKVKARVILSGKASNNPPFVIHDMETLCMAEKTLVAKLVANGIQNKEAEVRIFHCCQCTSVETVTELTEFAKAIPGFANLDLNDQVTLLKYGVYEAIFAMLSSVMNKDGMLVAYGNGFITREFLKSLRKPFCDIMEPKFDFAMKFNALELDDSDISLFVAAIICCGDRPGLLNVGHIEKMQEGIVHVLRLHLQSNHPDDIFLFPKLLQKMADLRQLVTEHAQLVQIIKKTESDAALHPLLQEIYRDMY

CYP2E1 = CYP2E1 (Homo sapiens, UniProt P05181); test: incubation with recombinant human CYP2E1, metabolites by LC–MS/MS; assay type: biochemical
CYP2E1, sequence (P05181 whole entry): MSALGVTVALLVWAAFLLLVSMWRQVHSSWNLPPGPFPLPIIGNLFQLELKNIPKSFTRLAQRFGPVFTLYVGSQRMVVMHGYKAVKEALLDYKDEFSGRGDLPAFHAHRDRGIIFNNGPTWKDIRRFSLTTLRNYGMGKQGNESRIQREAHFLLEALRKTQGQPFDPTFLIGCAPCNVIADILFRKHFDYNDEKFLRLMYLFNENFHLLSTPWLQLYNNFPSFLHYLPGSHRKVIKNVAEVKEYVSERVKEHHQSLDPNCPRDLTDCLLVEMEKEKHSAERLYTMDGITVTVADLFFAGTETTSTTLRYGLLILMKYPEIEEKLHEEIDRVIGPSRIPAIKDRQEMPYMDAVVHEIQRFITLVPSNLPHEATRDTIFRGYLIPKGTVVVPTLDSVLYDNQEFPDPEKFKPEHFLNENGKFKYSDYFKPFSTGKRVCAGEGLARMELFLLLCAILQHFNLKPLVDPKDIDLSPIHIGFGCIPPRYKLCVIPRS

Kd (PPARα)	SMILES	incubation with recombinant human CYP2E1, metabolites by LC-MS/MS (CYP2E1)
16.1 µM	CCCCC/C=C\C/C=C\C/C=C\C/C=C\CCCC(=O)O [AA, arachidonic acid]	All the compounds were metabolized by recombinant CYP2E1 and their metabolites identified by LC–MS/MS
14.3 µM	CC/C=C\C/C=C\C/C=C\C/C=C\C/C=C\C/C=C\CCC(=O)O [DHA, docosahexaenoic acid]	All the compounds were metabolized by recombinant CYP2E1 and their metabolites identified by LC–MS/MS
23.8 µM	CCCCC/C=C\C/C=C\CCCCCCCC(=O)O [LCA, 9,12-linoleic acid]	metabolic sites on LCA by recombinant CYP2E1 protein were at C-6 to C-10, C-16, and C-17
